Each structure is given as a SMILES string. A value given as a limit tells only on which side of the number the result lay.

Data set [1] deals with intracellular L. donovani amastigotes. The data set is described as follows: Luminescent-based evaluation of intracellular anti-leishmanial activity in THP-1 macrophages. It counts as cell-based, Leishmania donovani. The conditions noted are these: intracellular Leishmania donovani in THP1 macrophages, luminescence assay (Supplemental Table 2); read-out: Lum IC50. Here is the method: Luminescent strains, L. donovani LV82 expressing firefly luciferase (a kind gift from Dr. Abhay Satoskar, Ohio State University) and L. mexicana (NR-51210, ATCC) expressing renilla luciferase were used to evaluate the effect of the compounds in intracellular and extracellular conditions. Wild-type L. donovani LV82 (ATCC) were used for Giemsa staining based experiments. All parasites were cultured at 25°C and 5% CO2 in M199 media (Corning) supplemented with 10% FBS, 1% penicillin/streptomycin, and hemin (0.01 mg/mL), and used in experiments up to passage 15.
THP-1 cells were seeded in a 96 well plate (25,000 cells/well) overnight then differentiated with 150 nM phorbol 12-myristate 13-acetate (PMA) over 72 hours (Supplemental Figure 1). […] Briefly, promastigotes of a known cell density were resuspended in RPMI media (with 10% FBS, 1% P/S and 0.05 mM β-mercaptoethanol) and incubated with adhered THP-1 cells over 18 hours. After infection, cells were washed three times with fresh media to remove extracellular promastigotes.
Infected macrophages were then treated with compounds solubilized in DMSO ranging from 0.1-10 μM in concentrations. After 72 hours of treatment, the viability of the amastigotes within macrophages was determined using Promega firefly luminescence assay (Cat E1500) or Pierce Renilla luciferase assay (Cat 16166) for L. donovani and L. mexicana strains, respectively. Briefly, media was removed, and cells were lysed with the assay lysis buffer. The luciferase substrate was then incubated with the lysed cells for 10 min at room temperature and luminescence of live Leishmania was measured in a white opaque 96 well plate using a Biotek plate reader.

For the next data set, the system named is THP-1 macrophages. The experiment in a line: Effect of compounds on host cell viability (MTT). In kind it is cell-based. The conditions noted are these: read-out: 24h LC50; THP1 macrophages, 24-hour incubation, MTT assay (Supplemental Table 2). As to the method: The cells were cultured at 37C, 5% CO2 in RPMI medium (ATCC) supplemented with 10% FBS, 1% Penicillin/Streptomycin and 0.05 mM of β-mercaptoethanol. Cells were used in experiments up to passage 10.
Effect of the compounds on THP-1 cell viability measured using thiazolyl blue tetrazolium bromide which measures cell metabolic activity (MTT). THP-1 cells were seeded in a 96 well plate (25,000 cells/well) overnight then differentiated with 150 nM phorbol 12-myristate 13-acetate (PMA) over 72 hours. Macrophages were then treated with compounds resuspended in RPMI media (1- 50 μM) for 24 hours. Media was replaced with thiazolyl blue tetrazolium bromide solubilized in RPMI media (0.5 mg/mL) and incubated at 37°C for 2 hours. The reduced formazan crystals were solubilized with isopropyl alcohol and the absorbance of the resulting solution was measured at 560 nm with a background subtraction at 670 nm. […] This process was repeated with a 72-hr incubation and extended concentration range (1 - 300 μM) for select compounds.

As to `NCC(=O)NC1CCN(c2ccc(-n3nc(C(F)(F)F)cc3-c3ccc(-c4ccc(C(F)(F)F)cc4)cc3)cc2)CC1` [Compound 111], the IC50 in data set [1] was 2.9 µM. Also, the CC50 in the data set with THP-1 macrophages was 5.2 µM.
The like results for `NC1CCN(c2ccc(-n3nncc3-c3ccc(-c4ccc(C(F)(F)F)cc4)cc3)cc2)C1` (centres unmarked) [Compound 137] were, in that order, 4.4 µM and 7.3 µM.
Turning to `CC(C)C#Cc1ccc(-c2cc(C(F)(F)F)nn2-c2ccc(N3CCC(NCc4ccccc4)C3)cc2)cc1` (centres unmarked) [Compound 99], the half-inhibitory concentration (IC50) in data set [1] was over 10 µM. Besides, the CC50 in the data set with THP-1 macrophages stood at 29.2 µM.
The like results for `Cc1ccc(-n2nc(C(F)(F)F)cc2-c2ccc(-c3ccc(C(F)(F)F)cc3)cc2)c(C)c1` [Compound 185] were, in that order, over 10 µM and over 50 µM.
The like results for `CC(=O)c1ccc(-n2cc(C(F)(F)F)nc2-c2ccc(-c3ccccc3)cc2)cc1` [Compound 184] were, in that order, 5 µM and over 50 µM.
`CC(C)c1cc(C(F)(F)F)nn1-c1ccc(NC2CCNC2)cc1` (centres unmarked) [Compound 315]: the IC50 in data set [1] came out at 3.3 µM. The CC50 in the data set with THP-1 macrophages was 25.1 µM.
For `CC(C)C#Cc1ccc(-c2cc(C(F)(F)F)nn2-c2ccc(N3CCNCC3)cc2)cc1` [Compound 45], the IC50 in data set [1] came out at 3.7 µM. In addition, the CC50 in the data set with THP-1 macrophages is 3.2 µM.
The like results for `NS(=O)(=O)c1ccc(-n2nc(C(F)(F)F)cc2-c2ccc(-c3ccc(C(F)(F)F)cc3)cc2)cc1` [Compound 188] were, in that order, 3.1 µM and 9 µM.
The like results for `NCC(=O)Nc1ccc(-n2cc(C(F)(F)F)nc2-c2ccc(-c3ccc(C(F)(F)F)cc3)cc2)cc1` [Compound 79] were, in that order, 7.1 µM and 6.3 µM.
For `CC(C)(C)OC(=O)NC1CCN(c2ccc(-n3nc(C(F)(F)F)cc3-c3ccc(-c4ccc(C(F)(F)F)cc4)cc3)cc2)C1` (centres unmarked) [Compound 128] the same measures were over 10 µM and over 50 µM.
For `CC(C)(C)OC(=O)NC1CCN(c2ccc(-n3nc(C(F)(F)F)cc3-c3ccc(-c4ccc(C(F)(F)F)cc4)cc3)cc2)CC1` [Compound 72], in data set [1], the concentration for half-maximal inhibition (IC50) was over 10 µM. For the same compound, the CC50 in the data set with THP-1 macrophages was over 50 µM.
For `FC(F)(F)c1cc(-c2ccc(C#CC3CC3)cc2)n(-c2ccc(N3CCNCC3)cc2)n1` [Compound 42] the same measures were 4.2 µM and 0.7 µM.
For `c1cn(-c2ccc3nonc3c2)cn1` [Compound 207] the same measures were over 10 µM and over 50 µM.
In the case of `Nc1ccc(-n2cc(C(F)(F)F)nc2-c2ccc(-c3ccc(C(F)(F)F)cc3)cc2)cc1` [Compound 76], the IC50 in data set [1] is over 10 µM.
With `Cc1cc(C(F)(F)F)n(-c2ccc(NC3CCN(C(=O)OC(C)(C)C)C3)cc2)n1` (centres unmarked) [Compound 282], in the data set with THP-1 macrophages, the CC50 is over 50 µM.
The same measure, in the same setting: the value for `NCC(=O)NCCn1cc(C(F)(F)F)nc1-c1ccc(C(F)(F)F)cc1` [Compound 295] was over 50 µM; that for `NC(=O)CNc1ccc(-n2cc(C(F)(F)F)nc2-c2ccc(C(F)(F)F)cc2)cc1` [Compound 405] was over 50 µM.
For `FC(F)(F)c1ccc(CNC2CCN(c3ccc(-n4nc(C(F)(F)F)cc4-c4ccc(-c5ccc(C(F)(F)F)cc5)cc4)cc3)C2)cc1` (centres unmarked) [Compound 24], the CC50 with THP-1 macrophages is over 50 µM.
`Nc1ccc(-n2nc(C(F)(F)F)cc2C2CCCCC2)cc1` [Compound 338]: the CC50 with THP-1 macrophages was over 50 µM.
On the same count and under the same terms, the value for `COc1ccc(CNC2CCN(c3ccc(-n4nc(C(F)(F)F)cc4-c4ccc(-c5ccc(C(F)(F)F)cc5)cc4)cc3)C2)cc1` (centres unmarked) [Compound 14] was 50 µM.
Take `Fc1cccc(CNC2CCN(c3ccc(-n4nc(C(F)(F)F)cc4C4CCCCC4)cc3)C2)c1` (centres unmarked) [Compound 285]: the CC50 with THP-1 macrophages is over 50 µM.
On the same count and under the same terms, the same measure for `Fc1cccc(CN2CCC(Oc3ccc(-n4nc(C(F)(F)F)cc4C4CCCCC4)cc3)C2)c1` (centres unmarked) [Compound 376]: over 50 µM; for `O=C(CO)Nc1ccc(-n2cc(C(F)(F)F)nc2-c2ccc(C(F)(F)F)cc2)cc1` [Compound 404]: over 50 µM; for `FC(F)(F)c1c[nH]c(-c2ccc(Cl)cc2)n1` [Compound 35]: over 50 µM.
The same measure, in the same setting: the value for `Fc1cccc(CN2CCC(Oc3ccc(-n4nc(C(F)(F)F)cc4C4CCCCC4)cc3)CC2)c1` [Compound 372] was over 50 µM; that for `CC(C)(C)OC(=O)N1CCC(Oc2ccc(-n3nc(C(F)(F)F)cc3-c3ccc(-c4ccc(C(F)(F)F)cc4)cc3)cc2)CC1` [Compound 28] was over 50 µM; that for `Cc1cc(C(F)(F)F)nn1-c1ccc(NC2CCNC2)cc1` (centres unmarked) [Compound 313] was over 50 µM.
Same read-out and setting: the same measure for `CCc1cc(C(F)(F)F)nn1-c1ccc(Br)cc1` [Compound 316]: over 50 µM; for `O=[N+]([O-])c1ccc(-n2nc(-c3ccc(Br)cc3)cc2C(F)(F)F)cc1` [Compound 38]: over 50 µM; for `CC(C)(C)OC(=O)N1CC(Nc2ccc(-n3nc(C(F)(F)F)cc3-c3ccc(-c4ccc(C(F)(F)F)cc4)cc3)cc2)C1` [Compound 56]: over 50 µM.
In the case of `FC(F)(F)c1cc(-c2ccc(Cl)c(Cl)c2)n(-c2ccc(NC3CCNC3)cc2)n1` (centres unmarked) [Compound 261], the CC50 in the data set with THP-1 macrophages worked out at 22.4 µM.
Same read-out and setting: the same measure for `FC(F)(F)c1ccc(-c2ccc(-c3cc(C(F)(F)F)nn3-c3ccc(N4CCC(NCc5cccc(Cl)c5Cl)C4)cc3)cc2)cc1` (centres unmarked) [Compound 13]: over 50 µM; for `NCC(=O)Nc1ccc(-n2cc(C(F)(F)F)nc2-c2ccccc2C(F)(F)F)cc1` [Compound 297]: over 50 µM.
Regarding `Cc1cc(C(F)(F)F)n(-c2ccc(NC3CCNC3)cc2)n1` (centres unmarked) [Compound 284], the CC50 in the data set with THP-1 macrophages was over 50 µM.
Same read-out and setting: the value for `Cc1cc(C(F)(F)F)nn1-c1ccc(Br)cc1` [Compound 275] was over 50 µM; that for `FC(F)(F)c1ccc(-c2cnnn2-c2ccc(NC3CCNCC3)cc2)cc1` [Compound 434] was 24.6 µM; that for `O=[N+]([O-])c1ccc(-n2cc(C(F)(F)F)nc2-c2ccc(Cl)cc2)cc1` [Compound 29] was over 50 µM.
The same measure, in the same setting: the same measure for `FC(F)(F)c1ccc(-c2ccc(-c3cc(C(F)(F)F)nn3-c3ccc(N4CCC(NCc5cccs5)C4)cc3)cc2)cc1` (centres unmarked) [Compound 20]: over 50 µM; for `N#Cc1ccc(CN2CCC(Nc3ccc(-n4nc(C(F)(F)F)cc4C4CCCCC4)cc3)C2)cc1` (centres unmarked) [Compound 358]: 13.2 µM; for `CC(C)(C)OC(=O)N1CCC(Oc2ccc(-n3nc(C(F)(F)F)cc3C3CCCCC3)cc2)CC1` [Compound 367]: over 50 µM.
The same measure, in the same setting: the same measure for `O=C(c1ccc(F)cc1)N1CCC(Nc2ccc(-n3nc(C(F)(F)F)cc3-c3ccc(-c4ccc(C(F)(F)F)cc4)cc3)cc2)C1` (centres unmarked) [Compound 59]: over 50 µM.
Regarding `N#Cc1ccc(CNC2CCN(c3ccc(-n4nc(C(F)(F)F)cc4-c4ccc(-c5ccc(C(F)(F)F)cc5)cc4)cc3)C2)cc1` (centres unmarked) [Compound 19], the CC50 with THP-1 macrophages is over 50 µM.
In the case of `CC(C)(C)OC(=O)N1CCC(Nc2ccc(-n3nc(C(F)(F)F)cc3C3CC3)cc2)C1` (centres unmarked) [Compound 268], in the data set on THP-1 macrophages, the CC50 was over 50 µM.
As to `CC(C)(C)OC(=O)N1CCN(c2ccc(-n3nc(C(F)(F)F)cc3-c3ccc(Br)cc3)cc2)CC1` [Compound 41], in the data set with THP-1 macrophages, the CC50 is over 50 µM.
Take `FC(F)(F)c1cc(-c2ccco2)n(-c2ccc(Br)cc2)n1` [Compound 267]: the CC50 in the data set on THP-1 macrophages is over 50 µM.
Regarding `FC(F)(F)c1ccc(-c2ccc(-c3cc(C(F)(F)F)nn3-c3ccc(NC4CCN(Cc5cccc(Cl)c5Cl)C4)cc3)cc2)cc1` (centres unmarked) [Compound 52], in the data set with THP-1 macrophages, the CC50 is over 50 µM.

For the origin of these results see paper doi:10.1101/2025.11.04.686469, “Discovery of Host-Directed Small Molecules with Broad Anti-Leishmanial Efficacy” (bioRxiv, 2025).
